Experimental data taken from patent EP4644396A1 (Visionpharma (Nantong) Co., Ltd, priority 2022, dated 2024).
Where two headings read alike, the source gives them in different places.

How the values were obtained:
[1] = target: T1, human TLR8 (Homo sapiens, UniProt Q9NR97); assay: HEK-Blue hTLR8 SEAP reporter gene inhibition assay; type: cell-based
T1 construct: expressed in transfected cells
T1 sequence (Q9NR97 27-1041): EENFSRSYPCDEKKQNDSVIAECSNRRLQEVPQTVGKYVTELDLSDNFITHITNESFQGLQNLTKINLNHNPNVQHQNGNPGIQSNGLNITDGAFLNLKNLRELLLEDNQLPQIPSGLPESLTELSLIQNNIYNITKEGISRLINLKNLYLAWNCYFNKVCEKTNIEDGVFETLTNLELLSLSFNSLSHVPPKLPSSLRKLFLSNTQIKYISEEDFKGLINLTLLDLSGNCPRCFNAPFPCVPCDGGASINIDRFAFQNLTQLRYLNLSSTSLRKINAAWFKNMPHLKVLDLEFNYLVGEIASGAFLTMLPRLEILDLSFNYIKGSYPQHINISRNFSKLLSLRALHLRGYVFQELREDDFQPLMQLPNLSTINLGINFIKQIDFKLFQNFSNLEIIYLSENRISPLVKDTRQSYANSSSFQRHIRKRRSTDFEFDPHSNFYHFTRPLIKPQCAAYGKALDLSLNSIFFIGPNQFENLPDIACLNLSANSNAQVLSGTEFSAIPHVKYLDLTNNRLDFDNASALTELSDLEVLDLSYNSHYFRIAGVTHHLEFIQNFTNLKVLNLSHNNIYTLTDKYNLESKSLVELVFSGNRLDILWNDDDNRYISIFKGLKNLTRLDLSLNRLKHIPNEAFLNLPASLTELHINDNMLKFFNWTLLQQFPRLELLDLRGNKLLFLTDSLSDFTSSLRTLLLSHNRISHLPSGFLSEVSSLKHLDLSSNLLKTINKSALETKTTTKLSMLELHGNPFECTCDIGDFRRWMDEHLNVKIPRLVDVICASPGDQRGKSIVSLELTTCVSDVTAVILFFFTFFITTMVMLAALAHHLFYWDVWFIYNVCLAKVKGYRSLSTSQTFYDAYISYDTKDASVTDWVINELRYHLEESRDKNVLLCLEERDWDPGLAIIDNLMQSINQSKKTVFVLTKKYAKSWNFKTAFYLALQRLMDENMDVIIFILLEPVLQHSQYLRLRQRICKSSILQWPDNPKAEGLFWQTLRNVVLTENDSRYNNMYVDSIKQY
In short: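 Cells seeded (TLR7 line 80,000, TLR8 line 60,000 per well), compound added at 0.001–36 µM final for 15 min, then agonist at 10 µM final (Gardiquimod for TLR7) for 20 h. SEAP measured with Quanti-Blue; IC50 fitted.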

[2] = target: T2, human TLR7 (Homo sapiens, UniProt Q9NYK1); assay: HEK-Blue hTLR7 SEAP reporter gene inhibition assay; type: cell-based
T2 sequence (Q9NYK1 27-1049): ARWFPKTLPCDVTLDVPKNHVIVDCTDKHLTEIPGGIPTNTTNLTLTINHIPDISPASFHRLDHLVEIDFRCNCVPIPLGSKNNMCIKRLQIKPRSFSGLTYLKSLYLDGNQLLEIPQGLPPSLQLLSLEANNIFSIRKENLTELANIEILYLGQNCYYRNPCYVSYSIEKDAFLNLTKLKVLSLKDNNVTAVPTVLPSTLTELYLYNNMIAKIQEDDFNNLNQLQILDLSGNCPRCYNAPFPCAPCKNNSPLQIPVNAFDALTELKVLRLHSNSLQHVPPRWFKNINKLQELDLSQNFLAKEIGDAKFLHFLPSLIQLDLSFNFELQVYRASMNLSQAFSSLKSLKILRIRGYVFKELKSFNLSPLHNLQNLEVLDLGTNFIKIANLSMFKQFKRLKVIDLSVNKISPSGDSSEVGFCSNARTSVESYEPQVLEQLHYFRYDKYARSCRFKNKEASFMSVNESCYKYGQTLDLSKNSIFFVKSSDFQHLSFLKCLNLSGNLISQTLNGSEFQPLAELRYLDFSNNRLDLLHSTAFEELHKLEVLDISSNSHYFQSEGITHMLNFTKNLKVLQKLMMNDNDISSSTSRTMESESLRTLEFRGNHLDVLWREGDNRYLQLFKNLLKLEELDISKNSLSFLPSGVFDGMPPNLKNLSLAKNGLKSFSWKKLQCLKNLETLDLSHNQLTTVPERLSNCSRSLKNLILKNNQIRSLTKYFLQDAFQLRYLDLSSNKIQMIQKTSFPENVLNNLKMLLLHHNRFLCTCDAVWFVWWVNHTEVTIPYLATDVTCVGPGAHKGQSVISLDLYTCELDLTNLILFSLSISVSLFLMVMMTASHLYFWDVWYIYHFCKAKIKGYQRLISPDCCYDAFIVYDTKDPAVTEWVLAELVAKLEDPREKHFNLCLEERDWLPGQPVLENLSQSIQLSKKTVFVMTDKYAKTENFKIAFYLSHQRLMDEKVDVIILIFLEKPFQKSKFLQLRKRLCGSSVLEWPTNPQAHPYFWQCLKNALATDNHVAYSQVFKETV
Description: HEK-Blue cells with stable expression of human TLR7 or TLR8 were used in the evaluation of inhibitory activity of compounds in the present invention against TLR7 or TLR8, by using its ability to induce the SEAP reporting gene under the control of the fusion of IFN-β minimum promoters into five NF-κB and ap-1 binding sites, as follows: hTLR7 HEK-Blue cells (Invivogen, 80, 000 cells per well) or hTLR8 HEK-Blue cells (60, 000 cells per well) were added to a 96-well cell culture plate. A solution of the testing compounds were added to each well, with the final concentration of tested compounds in the medium ranged from 0.001 to 36 µM and the culture was incubated for 15 minutes. M5049 was used as positive controls in the testing.
Then a TLR7 ligand (Gardiquimod, purchased from MedChemExpress, with final concentration of ligand in cell culture medium kept at 10 µM) or a TLR8 ligand (purchased from MedChemExpress with final concentration in cell culture media at 10 µM) and the culture was incubated for 20 hours. According to the manufacturer's instructions, a HEK-Blue reagent Quanti-blue (Invivogen) was used to detect the SEAP levels in cell cultures. The half […] concentration or IC50 was calculated by using GraphPad Prism. […] Table 1: Activities of examples in this invention to hTLR7/8 in HEK-Blue Cells

[3] = hTLR8 HEK-Blue cells, TLR8 ligand 10 µM, 20 hours, SEAP by Quanti-blue, class symbols, read-out: HEK-Blue hTLR8 IC50
[4] = hTLR7 HEK-Blue cells, TLR7 ligand Gardiquimod 10 µM, 20 hours, SEAP by Quanti-blue, class symbols, read-out: HEK-Blue hTLR7 IC50

Row | IC50 [1, 3] [µM] | IC50 [2, 4] [µM] | Structure (SMILES) | IC50 ([1]; HEK-Blue hTLR8 IC50 (µM)) [µM] | IC50 ([2]; HEK-Blue hTLR7 IC50 (µM)) [µM]
1 | < 0.1 | > 0.05 | C[C@@H]1CN(c2ccc(C#N)n3ncc(F)c23)Cc2c3c(nn21)CN(Cc1cn[nH]c1)CC3 [Example I-28, (R)-4-(8-((1H-pyrazol-4-yl)methyl)-4-methyl-3,4,7,8,9,10-hexahydropyrido[3',4':3,4]pyrazolo[1,5-a]pyrazin-2(1H)-yl)-3-fluoropyrazolo[1,5-a]pyridine-7-carbonitrile] | – | –
2 | < 0.1 | < 0.05 | CC1Cc2c(nn3c2CN(c2ccc(C#N)n4ncc(F)c24)C[C@H]3C)CN1 (stereo partly drawn) [Example I-30, 4-((4R)-4,9-dimethyl-3,4,7,8,9,10-hexahydropyrido[3',4':3,4]pyrazolo[1,5-a]pyrazin-2(1H)-yl)-3-fluoropyrazolo[1,5-a]pyridine-7-carbonitrile] | – | –
3 | < 0.1 | > 0.05 | C[C@@H]1CN(c2ccc(C#N)n3ncc(F)c23)Cc2c3c(nn21)C(CO)NCC3 (stereo partly drawn) [Example I-33, 3-Fluoro-4-((4R)-7-(hydroxymethyl)-4-methyl-3,4,7,8,9,10-hexahydropyrido[3',4':3,4]pyrazolo[1,5-a]pyrazin-2(1H)-yl)pyrazolo[1,5-a]pyridine-7-carbonitrile] | – | –
4 | < 0.1 | < 0.05 | C[C@@H]1CN(c2ccc(C#N)n3ncc(F)c23)Cc2c3c(nn21)CC(N1CCC(O)C1)CC3 (stereo partly drawn) [Example I-34, 3-Fluoro-4-((4R)-8-(3-hydroxypyrrolidin-1-yl)-4-methyl-3,4,7,8,9,10-hexahydropyrazino[1,2-b]indazol-2(1H)-yl)pyrazolo[1,5-a]pyridine-7-carbonitrile] | – | –
5 | < 0.1 | < 0.05 | C[C@@H]1NCCc2c1nn1c2CN(c2ccc(C#N)n3ncc(F)c23)C[C@H]1C [Example I-39, 4-((4R,7S)-4,7-dimethyl-3,4,7,8,9,10-hexahydropyrido[3',4':3,4]pyrazolo[1,5-a]pyrazin-2(1H)-yl)-3-fluoropyrazolo[1,5-a]pyridine-7-carbonitrile] | – | –
6 | < 0.1 | > 0.05 | C[C@@H]1CN(c2ccc(C#N)n3ncc(F)c23)Cc2c3c(nn21)CNCC3CO (stereo partly drawn) [Example I-40, 3-Fluoro-4-((4R)-10-(hydroxymethyl)-4-methyl-3,4,7,8,9,10-hexahydropyrido [3',4':3,4]pyrazolo[1,5-a]pyrazin-2(1H)-yl)pyrazolo[1,5-a]pyridine-7-carbonitrile] | – | –
7 | – | – | C[C@@H]1CN(c2ccc(C#N)n3ncc(F)c23)Cc2c3c(nn21)CN[C@H](CO)C3 [Example I-43, 3-fFuoro-4-((4R,9S)-9-(hydroxymethyl)-4-methyl-3,4,7,8,9,10-hexahydropyrido [3',4':3,4]pyrazolo[1,5-a]pyrazin-2(1H)-yl)pyrazolo[1,5-a]pyridine-7-carbonitrile] | < 0.1 | < 0.05
8 | < 0.1 | < 0.05 | C[C@@H]1CN(c2ccc(C#N)n3ncc(F)c23)Cc2c3c(nn21)C(C)(C)NCC3 [Example I-45, (R)-3-Fluoro-4-(4,7,7-trimethyl-3,4,7,8,9,10-hexahydropyrido[3',4':3,4]pyrazolo[1,5-a]pyrazin-2(1H)-yl)pyrazolo[1,5-a]pyridine-7-carbonitrile] | – | –
9 | > 0.1 | < 0.05 | C[C@@H]1Cc2c(nn3c2CN(c2ccc(C#N)n4ncc(F)c24)C[C@H]3C)[C@H](C)N1 [Example I-59, 3-Fluoro-4-((4R,7S,9R)-4,7,9-trimethyl-3,4,7,8,9,10-hexahydropyrido[3',4':3,4]pyrazolo[1,5-a]pyrazin-2(1H)-yl)pyrazolo[1,5-a]pyridine-7-carbonitrile] | – | –
10 | > 0.1 | < 0.05 | CC(C)C1Cc2c(nn3c2CN(c2ccc(C#N)n4ncc(F)c24)C[C@H]3C)CN1 (stereo partly drawn) [Example I-60, 3-Fluoro-4-((4R)-9-isopropyl-4-methyl-3,4,7,8,9,10-hexahydropyrido[3',4':3,4]pyrazolo[1,5-a]pyrazin-2(1H)-yl)pyrazolo[1,5-a]pyridine-7-carbonitrile] | – | –
11 | – | – | C[C@@H]1CN(c2ccc(C#N)n3ncc(F)c23)Cc2c3c(nn21)CNC(CCOC(C)(C)C)C3 (stereo partly drawn) [Example I-61, 4-((4R)-9-(2-(tert-butoxy)ethyl)-4-methyl-3,4,7,8,9,10-hexahydropyridine[3',4':3,4]pyrazole[1,5-a]pyrazine-2(1H)-yl)-3-fluoropyrazole[1,5-a]pyridine-7-caronitrile] | > 0.1 | < 0.05
12 | < 0.1 | > 0.05 | C[C@@H]1CN(c2ccc(C#N)n3ncc(F)c23)Cc2c3c(nn21)CNC(c1ccn[nH]1)C3 (stereo partly drawn) [Example I-68, 3-Fluoro-4-((4R)-4-methyl-9-(1H-pyrazol-5-yl)-3,4,7,8,9,10-hexahydropyrido[3',4':3,4]pyrazolo[1,5-a]pyrazin-2(1H)-yl)pyrazolo[1,5-a]pyridine-7-carbonitrile] | – | –

Row | Structure (SMILES) | IC50 [1, 3] [µM] | IC50 [2, 4] [µM] | IC50 ([1]; HEK-Blue hTLR8 IC50 (µM)) [µM] | IC50 ([2]; HEK-Blue hTLR7 IC50 (µM)) [µM]
13 | C[C@@H]1CN(c2ccc(C#N)n3ncc(F)c23)Cc2c3c(nn21)CN[C@@H](C)C3 [Example I-30a] | < 0.1 | < 0.05 | – | –
14 | C[C@@H]1Cc2c(nn3c2CN(c2ccc(C#N)n4ncc(F)c24)C[C@H]3C)CN1 [Example I-30b] | < 0.1 | < 0.05 | – | –
15 | C[C@@H]1CN(c2ccc(C#N)n3ncc(F)c23)Cc2c3c(nn21)C1CCC(C3)N1 (stereo partly drawn) [Example I-52, 3-Fluoro-4-((4R)-4-methyl-1,3,4,7,8,9,10,11-octahydro-2H-7,10-epiminocyclohepta [3,4]pyrazolo[1,5-a]pyrazin-2-yl)pyrazolo[1,5-a]pyridine-7-carbonitrile] | < 0.1 | < 0.05 | – | –
